Values quoted from earlier work as cited in US10485764B2, “Lyophilized pharmaceutical compositions” (Otsuka Pharmaceutical Co., Ltd., priority 2015, dated 2019).

Tested on: HDAC
Conditions: in vitro or in vivo, from literature

| Compound | HDAC inhibition |
| --- | --- |
| O=C(/C=C/c1cccc(C(=O)NO)c1)NO [CBHA, m-carboxy-cinnamic acid bishydroxamic acid] | micromolar concentration or lower |
| C/C=C1\NC(=O)[C@H]2CSSCC/C=C/[C@H](CC(=O)N[C@H](C(C)C)C(=O)N2)OC(=O)[C@H](C(C)C)NC1=O [FR901228] | micromolar concentrations |
| depudecin | micromolar concentrations |
| trichostatin A [TSA] | potent inhibitor of mammalian HDAC |
